Patent US20180030500A1, “ENRICHMENT AND SELECTIVE CULTURE OF MYCOBACTERIA” (priority 2015, published 2018)

Legend:
Test in all cases: Sensitivity to C-390 in medium W
Format in all cases: cell-based
Design in all cases: key: NG: no growth; Tr: traces
[1] = tested on: Burkholderia ambifaria (LMG 19467)
Description: (§1) An evaluation of the sensitivity to C-390 of various microorganisms capable of infecting the airways was carried out. This evaluation was carried out using medium W of example 4, containing a variable concentration of C-390. Table 10 below collates the observations collected with regard to the intensity of growth of the strains tested as a function of the C-390 concentration of the medium. The abbreviations NG (“no growth”) and Tr (“traces”) signify that no growth was observed or only a few not very significant traces.

[2] = tested on: Burkholderia vietnamiensis (744978N)
Description: as §1

[3] = tested on: Burkholderia vietnamiensis (LMG 18835)
Description: as §1

[4] = tested on: Burkholderia cenocepacia (LMG 18832)
Description: as §1

[5] = tested on: Scedosporium prolificans (Anon)
Description: as §1

[6] = tested on: Burkholderia pyrrocinia (LMG 21824)
Description: as §1

[7] = tested on: Burkholderia cenocepacia (640328)
Description: as §1

Aspergillus flavus (ENV) = tested on: Aspergillus flavus (ENV)
Description: as §1

[8] = tested on: Burkholderia multivorans (672832Y)
Description: as §1

[9] = tested on: Burkholderia cepacia (LMG 18821)
Description: as §1

[10] = tested on: Scedosporium apiospermum (Anon)
Description: as §1

[11] = tested on: Burkholderia cepacia (LMG 1222)
Description: as §1

Measured: intensity of growth

CCN(CC)c1ccc(C2(Cl)c3ccccc3N(c3ccccc3)c3ccccc32)cc1 [Medium C-390, 9-chloro-9-(4′-diethylamino)phenyl-9,10-dihydro-10-phenylacridine]
NG: [1]; C-390 0.5 mg/l in medium W | [1]; C-390 1 mg/l in medium W | [1]; C-390 2 mg/l in medium W | [1]; C-390 4 mg/l in medium W | [1]; C-390 8 mg/l in medium W | [1]; C-390 16 mg/l in medium W | [1]; C-390 32 mg/l in medium W | [2]; C-390 2 mg/l in medium W | [2]; C-390 4 mg/l in medium W | [2]; C-390 8 mg/l in medium W | [2]; C-390 16 mg/l in medium W | [2]; C-390 32 mg/l in medium W | [3]; C-390 1 mg/l in medium W | [3]; C-390 2 mg/l in medium W | [3]; C-390 4 mg/l in medium W | [3]; C-390 8 mg/l in medium W | [3]; C-390 16 mg/l in medium W | [3]; C-390 32 mg/l in medium W | [4]; C-390 8 mg/l in medium W | [4]; C-390 16 mg/l in medium W | [4]; C-390 32 mg/l in medium W | [5]; C-390 0.5 mg/l in medium W | [5]; C-390 1 mg/l in medium W | [5]; C-390 2 mg/l in medium W | [5]; C-390 4 mg/l in medium W | [5]; C-390 8 mg/l in medium W | [5]; C-390 16 mg/l in medium W | [5]; C-390 32 mg/l in medium W | [6]; C-390 4 mg/l in medium W | [6]; C-390 8 mg/l in medium W | [6]; C-390 16 mg/l in medium W | [6]; C-390 32 mg/l in medium W | [7]; C-390 16 mg/l in medium W | [7]; C-390 32 mg/l in medium W | Aspergillus flavus (ENV); C-390 8 mg/l in medium W | Aspergillus flavus (ENV); C-390 16 mg/l in medium W | Aspergillus flavus (ENV); C-390 32 mg/l in medium W | [8]; C-390 8 mg/l in medium W | [8]; C-390 16 mg/l in medium W | [8]; C-390 32 mg/l in medium W | [9]; C-390 16 mg/l in medium W | [9]; C-390 32 mg/l in medium W | [10]; C-390 2 mg/l in medium W | [10]; C-390 4 mg/l in medium W | [10]; C-390 8 mg/l in medium W | [10]; C-390 16 mg/l in medium W | [10]; C-390 32 mg/l in medium W | [11]; C-390 4 mg/l in medium W | [11]; C-390 8 mg/l in medium W | [11]; C-390 16 mg/l in medium W | [11]; C-390 32 mg/l in medium W
Tr: [2]; C-390 1 mg/l in medium W | [8]; C-390 4 mg/l in medium W | [11]; C-390 2 mg/l in medium W
